Laboratory results: ChEMBL document CHEMBL3507680, “University of Dundee, Gates Library screen for HepG2 cell viability”

Assay: Human HepG2 cell viability assay in 384 well format
Format: toxicity, cell-based
Design: dose 125 nL, time 70.5 hour; cytotoxicity at 70.5 h: concentration not given beside the values
Details: HepG2 cells, read-out: Inhibition

Row | SMILES | cytotoxicity at 70.5 h [%]
1 | O=C(C1CC1)N1CCC(c2nc(-c3ccccc3)n[nH]2)CC1 | -1.09
2 | CN(Cc1ccncc1)C(=O)Nc1cnn(CC(N)=O)c1 | -4.03
3 | Fc1cc(CNCCn2cccn2)ccc1-n1cncn1 | 1.79
4 | COc1ccc(F)cc1C(=O)N1CCn2c(nnc2C(F)(F)F)C1 | -5.57
5 | O=S(=O)(c1cc2ccccc2o1)N1CCCC1 | 4.69
6 | O=C(NCCNc1ccccn1)NC1CCOC2(CCCCC2)C1 (stereo not given) | 3.54
7 | Cc1nccn1-c1ccc(C(C)NCc2cc[nH]n2)cc1 (stereo not given) | -0.399
8 | O=C(c1cccc(F)c1F)N1CCn2c(nnc2C(F)(F)F)C1 | -4.83
9 | CCc1cnc(CN(C)C(C)C(=O)N2CCc3ccccc3C2)s1 (stereo not given) | 0.736
10 | Cc1nn(C)c(C)c1CCNC(C)c1ccc(-n2ccnc2C)cc1 (stereo not given) | -2.24
11 | CC(C(=O)N1CCc2ccccc2C1)N(C)Cc1cscn1 (stereo not given) | -4.2
12 | COCCCSc1ccc(NCc2cscn2)cc1 | -2.43
13 | O=C(c1ccc(F)cc1Cl)N1CCn2c(nnc2C(F)(F)F)C1 | 1.4
14 | Cc1nc(CNC(C)c2cccc(S(=O)(=O)N(C)C)c2)no1 (stereo not given) | 16.5
15 | Cc1nc(CNC(C)c2ccc(S(=O)(=O)N(C)C)cc2)no1 (stereo not given) | -2.76
16 | Cc1cc(C(=O)NCC2(N(C)C)CCCC2)c(C)n1-c1cccnc1 | -0.689
17 | CC(C)CCC(=O)NCc1ccc(N2CCCCC2)cc1 | -9.32
18 | Cc1ccc2ncn(CC(O)CN3CCC(C)CC3)c(=O)c2c1 (stereo not given) | 19.7
19 | N#Cc1ccc(NCC(=O)Nc2ccn(Cc3cccnc3)n2)cc1 | -9.9
20 | COCC(=O)N1CCN(c2ccc(C(=O)OC)cc2)CC1C (stereo not given) | 20.1
21 | COCCOCCNC(=O)c1ccc(N2CCC(C)=N2)cc1 | -3.96
22 | N#Cc1ccc(NCC(=O)Nc2ncn(Cc3cccnc3)n2)cc1 | -6.44

Row | SMILES | cytotoxicity at 70.5 h [%]
23 | N#Cc1cccnc1N[C@@H]1c2ccccc2C[C@@H]1O | -16.4
24 | CCC(CO)NC(=O)NCc1cc(C#N)ccc1F (stereo not given) | -9.99
25 | CC(NC(=O)c1ccnc(C2CC2)n1)C1(N2CCOCC2)CCCC1 (stereo not given) | -4.36
26 | Cn1nccc1CNS(=O)(=O)c1cc(F)ccc1Br | -6.89
27 | CCNC(=O)NC(C)c1nc(-c2ccc(Br)cc2)no1 (stereo not given) | -8.74
28 | CNC(=O)NC(C)c1nc(-c2ccc(Br)cc2)no1 (stereo not given) | 9.87
29 | N#Cc1ccc(C(=O)NCC2(N3CCOCC3)CCCC2)nc1 | -4.06
30 | CCCNC(=O)COc1ccc(-c2ccccc2)nc1 | -5.84
31 | CCN(CC)c1ncc(CNC2CCc3nc(C(C)C)nn3C2)s1 (stereo not given) | -5.99
32 | Cc1cccc(CNC(=O)Nc2ccn(CCCC(=O)N(C)C)n2)c1 | -7.9
33 | Cc1nc(C(=O)N(C)CC(=O)N(C)C)nn1-c1ccccc1C(C)C | 33.6
34 | CC(C)(C)c1noc(CCC(=O)N2CCN(Cc3ccc(Cl)s3)CC2)n1 | 25.8
35 | Cc1c(C(C)NC(=O)C2CCCCC2)cnn1C (stereo not given) | 5.03
36 | CN(C)C(=O)Cn1cc(C(=O)NCCc2cccc(Cl)c2Cl)nn1 | 2.52
37 | N#Cc1cccc(CN2C(=O)c3ccccc3CS2(=O)=O)c1 | -2.45
38 | Cc1nc2n(n1)CC(NCc1ccnc(-c3ccccc3)n1)CC2 (stereo not given) | -2.5
39 | Cc1c(C(=O)NCCN2C(=O)CCC2=O)sc2ccc(F)cc12 | 2.84
40 | CCCS(=O)(=O)NCC(C)(O)c1ccsc1 (stereo not given) | -4.32
41 | Cn1nc2c(cc1=O)CN(CC(=O)Nc1nccs1)CC2 | -3.23
42 | CN(C)c1ccc(NC(=O)c2ccnn2C)nc1 | 0.439
43 | OCC1(NCc2cnc(-c3ccccn3)s2)CCOCC1 | 28
44 | Cc1ccc(C(=O)Nc2ccc(N(C)C)cn2)n1C | 7.03

Row | SMILES | cytotoxicity at 70.5 h [%]
45 | COCCN(Cc1cccc(C#N)c1)Cc1nc(C)no1 | 28.5
46 | CC(C)(C)n1ncc2c1CCCC2NCc1ccc2c(c1)CCO2 (stereo not given) | 9.44
47 | CC(C)c1nc(CN2CCN(C(=O)Cc3ccccc3Cl)CC2)no1 | -1.7
48 | O=C(Nc1nnc(C(F)F)s1)N[C@H](CCO)c1ccccc1 | 0.703
49 | CN(C)c1ccc(C(=O)N(CCO)CC2CC2)c(F)c1 | 30.4
50 | Cc1nc(CN2CCN(C(=O)CCc3nc(C(C)(C)C)no3)CC2)cs1 | 5.21
51 | CC(C)(C)n1ncc2c1CCCC2NCc1ccsc1 (stereo not given) | -0.727
52 | Fc1ccc(CN2CCCCC2Cn2cncn2)c2ncccc12 (stereo not given) | 25.5
53 | O=S(=O)(NCCCN1CCCC1)c1cc(F)cc(F)c1 | 27.2
54 | Cc1ccc(C(=O)Nc2cc(C(N)=O)ccc2N2CCCCC2)cc1F | -2.35
55 | O=C(NC1CCN(Cn2nc(-c3ccccc3)oc2=O)CC1)C1CC1 | 1.77
56 | CCCS(=O)(=O)NCc1cccnc1OCc1ccccc1 | -7.41
57 | NC(=O)c1ccc(N2CCCCC2)c(NC(=O)c2ccc(Br)cc2)c1 | -4.44
58 | CC(C)c1ccc(C2(C(=O)NCCS(N)(=O)=O)CCC2)cc1 | -9.09
59 | Cc1cc(CN(C)C(=O)C2CCCN(C(N)=O)C2)no1 (stereo not given) | -5.82
60 | COCCNC(=O)Nc1cccc(COCCOC(C)C)c1 | -6.5
61 | Fc1ccc(CN2CCCC2Cn2cncn2)c2ncccc12 (stereo not given) | 2.94
62 | O=C(NC1CCC(C(=O)N2CCSCC2)CC1)N1CCOCC1 (stereo not given) | -5.82
63 | CN(Cc1cnn(C)c1)C(=O)CN1CCCC1Cn1cncn1 (stereo not given) | 21.4
64 | CC(C)OCCOCc1cccc(NC(=O)NCC(=O)N(C)C)c1 | -2.88
65 | Cc1cc(C(=O)NC2(c3cccc(F)c3)CCOCC2)no1 | -7.78
66 | Cc1ccc(S(=O)(=O)NCCCN2CCC(O)CC2)cc1Cl | 4.78

Row | SMILES | cytotoxicity at 70.5 h [%]
67 | Fc1ccc(CN2CCOC(Cn3cncn3)C2)c2ncccc12 (stereo not given) | -3.84
68 | CC(C)C1CN(C(=O)c2ccsc2)CCS1 (stereo not given) | -9.62
69 | Cn1ncnc1CNc1ccc2c(c1)N(C(=O)OC(C)(C)C)CCC2 | -8.19
70 | Clc1cc(CN2CCCC(Cn3cncn3)C2)c2ncccc2c1 (stereo not given) | -12.2
71 | CN(Cc1cccc(F)c1)C(=O)CN1CCCC(Cn2cncn2)C1 (stereo not given) | 15.6
72 | CN(Cc1ccccc1)C(=O)CSc1ccc2c(c1)OCCO2 | 2.14
73 | CCc1cc(NC(=O)C(c2cccc(F)c2)N2CCOCC2)[nH]n1 (stereo not given) | -4.49
74 | Cc1c(C(=O)NCC(C)C)nnn1-c1cccc2c1CCN(CCO)C2 | -2.54
75 | COc1cc(C(=O)N(Cc2ccco2)C2CC2)cc(OC)c1OC | 23.7
76 | COc1cc(NC(=O)c2ccc(Cl)cc2F)c(C(=O)N(C)C)cc1OC | -11.5
77 | COc1cc(NC(=O)c2ccc(C)cc2C)c(C(=O)N(C)C)cc1OC | 4.46
78 | O=C(COc1cccc2c1CCC2=O)NCCc1cccs1 | 12.1
79 | O=C(COc1cccc2c1CCC2=O)NCc1ccccc1Cl | -10.6
80 | CC(CN1CCOCC1)NC(=O)NCCc1ccc(Cl)s1 (stereo not given) | -6.3
81 | CC(C)COCCC(=O)NCc1cn2cc(Br)ccc2n1 | 18.2
82 | COc1ccc(-c2nnc(SC(C)C(=O)NC(C)(C)C)[nH]2)c(OC)c1 (stereo not given) | 32.5
83 | O=C(CCCOc1ccccc1F)Nc1cc[nH]n1 | -6.95
84 | Cc1c(Br)cccc1C(=O)NCC1CCCNC1 (stereo not given) | 2.2
85 | Cc1c(Br)cccc1C(=O)NCC1CCNCC1 | 8.92
